We go through seven compounds from patent US12349677B2, “Antimicrobial composition” (CONOPCO, INC., priority 2018, dated 2025).

The subject of the experiment is E. coli ATCC 10536. Kind of experiment: In-vitro antibacterial efficacy (bacteria remaining after 4 hours contact, plate count). It is filed as cell-based. The settings on record: contact time 4 hours at 37° C. As to the method: The following samples were tested for in-vitro antibacterial efficacy using the below mentioned protocol
Sodium phosphate buffer 10 mM for culture preparation pH 7.4
The test organism was subcultured from the glycerol stock (stored at −70° C.) onto a TSA slant and incubated at 37° C. for 18 to 24 hours. The slant was stored in a refrigerator for a maximum of two weeks after which a fresh slant was prepared.
The test organisms were streaked from TSA slants onto petri plates containing TSA and incubated at 37° C. for 21 to 22 hours before use.
The bacterial inoculums were prepared corresponding to 10^6 cells in 10 mM Sodium Phosphate Buffer from the above plate.
The OD of culture was adjusted to 0.8 for E. coli, to give 10^8 cells/ml. Once the bacterial inoculums corresponding to 10^8 cells is prepared in sodium phosphate buffer, it is serially diluted to 10^6 cells ([…] in 10 mM sodium phosphate buffer)
135 μl bacterial inoculums (from 10^6 CFU/ml) was taken for all the treatments in a reaction volume of 300 μl (in a microtiter plate/96 well plate).
15 μl of 100 mM buffer was taken for all controls and treatments so that the final conc. corresponds to ˜5 mM in all the reactions.
The respective compounds/actives to be tested were taken and made up to a volume of 300 μl with autoclaved distilled water.
Note: Each treatment is kept in duplicates.
The microtiter plate was incubated at 37° C. for a contact time of 4 hours and then plated on TSA after required serial dilutions in neutralizer D/E to study bacterial kill.
Plates were incubated overnight for E. coli
The colonies were counted to estimate the bacteria remaining and thereby the log kill.
Experiments similar to the ones carried out for thymol+THPE were carried out with carvacrol+THPE. The antibacterial efficacy was measured in vitro as detailed above for examples 1 and A-C.
Experiments similar to the ones carried out for thymol+THPE were carried out with eugenol+THPE. The antibacterial efficacy was measured in vitro as detailed above for examples 1 and A-C.

The mark [1] stands for this setting: Table 1, thymol/THPE series, culture control 6.36.
Where [2] appears, read: Table 4, carvacrol/THPE series, culture control 6.41.
Setting [3] is: Table 5, eugenol/THPE series, culture control 6.23.

In the case of `CC(O)CN(CCN(CC(C)O)CC(C)O)CC(C)O` (stereo not shown) [B, tetrahydroxypropyl ethylenediamine], under setting [1], the “Average of bacteria remaining” value was determined as 5.98 log cfu/ml.
For the compound `Cc1ccc(C(C)C)c(O)c1` [C, thymol], the “Average of bacteria remaining” value under setting [1] is 6.26 log cfu/ml.
Take `Cc1ccc(C(C)C)cc1O` [F, carvacrol]: under setting [2], the “Average of bacteria remaining” value is on record as 6.12 log cfu/ml.
Same read-out and setting: the figure for `CC(O)CN(CCN(CC(C)O)CC(C)O)CC(C)O` (stereo not shown) [G, tetrahydroxypropyl ethylenediamine] is 5.97 log cfu/ml; for `CC(O)CN(CCN(CC(C)O)CC(C)O)CC(C)O` (stereo not shown) [H, tetrahydroxypropyl ethylenediamine] it is 5.45 log cfu/ml.
Turning to `C=CCc1ccc(O)c(OC)c1` [J, Eugenol], the “Average of bacteria remaining” value under setting [3] is recorded as 6.15 log cfu/ml.
Take `CC(O)CN(CCN(CC(C)O)CC(C)O)CC(C)O` (stereo not shown) [K, tetrahydroxypropyl ethylenediamine]: under setting [3], the “Average of bacteria remaining” value stood at 5.44 log cfu/ml.
